{"source": "paper PMC5007466", "about": "“VCP recruitment to mitochondria causes mitophagy impairment and neurodegeneration in models of Huntington's disease” (Nature Communications, 2016)", "key": {"[1]": {"test_system": "C57Black mice", "assay": "Toxicity analysis in naive mice", "assay_type": "in vivo, mouse", "experimental": "Supplementary Figure 8 : Toxicity analysis of HV -3in naïve mice .\nWe performed a toxicity analysis of HV-3 in mice. Six -week-old C57Black mice were treated with saline or peptide HV-3 at 3mg/kg/day by Alzet pump implantation. After 4- week treatment, the plasma, blood and whole mouse bodies of mice were collected. Examination on blood chemistry (Supplementary Table 1), hematology (Supplementary Table 2) and general necropsy of mice were performed at the Animal Diagnostic Laboratory at Stanford University. The experimenter who conducted the analysis was blind to the treatment groups. Automated hematology was performed on the Sysmex XT-2000iV analyzer system. Blood smears were made for all full CBC samples and reviewed by a medical technologist. Manual differentials were performed as indicated by species and automated analysis. Chemistry analysis was performed on the Siemens Dimension Xpand analyzer.\n(a) Frozen tissue sections of brain and spleen were stained with anti-CD3 antibody by immunohistochemistry. There is no observed difference in the immuno-density of CD3 between saline-and HV-3- treated groups. Scale bar: 100 µm. (b) The size and weight of spleens in mice treated with saline or peptide HV-3 were compared. Left: the ratio of spleen weight to body weight was calculated and expressed as mean ± SEM of five mice in each group. Right: the images of spleens of mice treated with saline or peptide HV-3. There is no observed difference in the size of the spleens. Paired Student’s t test. Four-week sustained treatment with HV-3 by pump implantation had no effects on blood chemistry (Supplementary Table 1), hematology (Supplementary Table 2), and gross necropsy of naïve mice when compared to mice treated with saline. A four-week treatment with HV-3 had […] on immuno-density of CD3, a marker of T-cell for adaptive immune response, in the brains and spleens of naïve mice (a). Treatment with HV-3 had no effects on the size and weight of the spleens (b). […]"}, "[2]": {"test_system": "YAC128 mice", "assay": "Stereology of NeuN-positive striatal neurons", "assay_type": "in vivo, mouse", "details": "YAC128, 12 months of age, 3 mg/kg/day, n=6", "experimental": "YAC128 mice (Tg) and their age-matched wt littermates were implanted with an osmotic pump containing TAT control peptide or HV-3 peptide (3 mg/kg/day, each) starting from the age of 3 months. The pump was replaced once every month. By the age of 12 months, the treatments were terminated and the mouse samples were harvested for analysis.\nTo measure the number of NeuN-positive cells, a series of 25 μm thick coronal sections spaced 200 μm apart spanning the striatum were stained with NeuN antibody (Millipore, 1:500) and visualized by diaminobenzidine. For neuropathological analyses, brain sections were analysed stereologically. Briefly, unbiased stereological counts of NeuN-positive neurons within the striatum were performed using unbiased stereological principles and analysed with StereoInvestigator software (Microbrightfield, Williston, VT). Optical fractionator sampling was carried out on a Leica DM5000B microscope (Leica Microsystems, Bannockburn, IL) equipped with a motorized stage and Lucivid attachment ( × 40 objective). The following parameters were used in the final study: grid size, (X) 500 μm, (Y) 500 μm; Counting frame, (X) 68.2 μm, (Y) 75 μm, depth was 20 μm. […] The total volume of stratial tissue measured in each brain is calculated by StereoInvestigator and the neuronal density is presented as NeuN positive cell number per mm^3."}, "[3]": {"test_system": "R6/2 mice", "assay": "Body weight and survival, R6/2", "assay_type": "in vivo, mouse", "details": "R6/2, 5–13 weeks of age, 3 mg kg^−1 per day, n=15", "experimental": "Male hemizygous R6/2 mice (Tg) and their age-matched wt littermates (5-week-old) were implanted with a 28-day osmotic pump (Alzet, Cupertino CA) containing TAT control peptide or HV-3 peptide, which delivered peptides to the mice at a rate of 3 mg kg^−1 per day. The first pump was implanted subcutaneously in the back of 5-week-old mice between the shoulders and replaced once, after 4 weeks.\nThe body weight and survival rate of HD mice and wt littermates were recorded throughout the study period."}, "[4]": {"test_system": "HD patient-iPS cell derived neurons", "assay": "Mitochondrial membrane potential (TMRM), iPS neurons", "assay_type": "cell-based, human", "details": "1 μM per day for 5 days", "experimental": "iPS cells from a normal subject and a HD patient (carrying 41 CAG repeats) were differentiated into neurons using the protocol from our previous studies. Briefly, iPS cells were plated onto 6-well plates precoated with 2.5% Matrigel and allowed to reach 90% confluence in feeder-free medium. For the first 10 days, cells were treated with SB431542 (10 μM; Tocris Bioscience) and Noggin (100 ng/ml) in Neural Media (NM) containing Neurobasal and DMEM (1:1), B27 supplement minus vitamin A (50 × , Invitrogen), N2 supplement (100 × , Invitrogen), GlutaMax (Invitrogen, 100 × ), FGF2 ([…]) and EGF ([…]), 100 units per ml penicillin and 100 μg ml^−1 streptomycin). […]\nTo determine mitochondrial mass in cultures, cells were stained with antibodies against Tom20 or stained with Mitotracker green. The fluorescent density of Tom20 (1:500) or mitotracker green was quantitated using NIH Image J software. […] The images were visualized by microscope and quantitation of the density of red fluorescence was carried out using NIH ImageJ software. For immunocytochemistry study, at least 100 cells per group were counted and quantitated by an observer blind to experimental conditions."}, "[5]": {"details": "3 mg/kg/day, 4 weeks, versus saline"}}}
{"smiles": "CSCC[C@H](NC(=O)[C@@H](NC(=O)[C@H](CC(C)C)NC(=O)[C@@H](NC(=O)[C@H](Cc1c[nH]cn1)NC(=O)CCCCCNC(=O)[C@H](CCCNC(=N)N)NC(=O)[C@H](CCCNC(=N)N)NC(=O)[C@H](CCCNC(=N)N)NC(=O)[C@H](CCC(N)=O)NC(=O)[C@H](CCCNC(=N)N)NC(=O)[C@H](CCCNC(=N)N)NC(=O)[C@H](CCCCN)NC(=O)[C@H](CCCCN)NC(=O)[C@H](CCCNC(=N)N)NC(=O)CNC(=O)[C@@H](N)Cc1ccc(O)cc1)C(C)C)C(C)C)C(=O)N[C@@H](CS)C(=O)N[C@@H](C)C(=O)N[C@H](C(N)=O)[C@@H](C)O", "note": "[HV-3]", "values": [{"measurement": "toxicity", "setting": "[1]; 3 mg kg^−1 per day, 4-week Alzet pump", "result": "not toxic to naive mice"}, {"measurement": "CD3 immunodensity in brain and spleen", "setting": "[1]; [5]", "result": "no significant effects on the immunodensity of CD3"}, {"measurement": "gross necropsy", "setting": "[1]; [5]", "result": "no effects"}, {"measurement": "size and weight of spleens", "setting": "[1]; 3 mg/kg/day, 4 weeks, versus saline, n = 5", "result": "no obvious effects on the size and weight of the spleens"}, {"measurement": "NeuN-positive neurons in dorsolateral striatum", "setting": "[2]", "result": "significantly increased the number of neurons positive for anti-NeuN immunostaining"}, {"measurement": "body weight", "setting": "[3]", "result": "increased body weight"}, {"measurement": "survival rate", "setting": "[3]", "result": "increased body weight and survival rate"}, {"measurement": "mitochondrial membrane potential", "setting": "[4]", "result": "improved MMP"}]}
